In patent publication US9725465B2, “Biaryl acetamide compounds and methods of use thereof” (Ambit Biosciences Corporation, priority 2013, dated 2017):

What was measured:
FLT3 kinase = FLT3 kinase (Homo sapiens (Human), UniProt P36888); assay: Competition binding assay (Kd), FLT3; conditions: competition binding
KIT kinase = KIT kinase (Homo sapiens (Human), UniProt P10721); assay: Competition binding assay (Kd), KIT; conditions: competition binding
Outline: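 Kd derived from eleven-point threefold serial dilutions of compound competing with bead-bound ligand for kinase; bound kinase eluted and measured by quantitative PCR. Kinase supplied either as a T7 phage fusion or expressed in HEK-293 cells with a DNA tag; DMSO served as control.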

Chain of KIT kinase (P10721 26-976): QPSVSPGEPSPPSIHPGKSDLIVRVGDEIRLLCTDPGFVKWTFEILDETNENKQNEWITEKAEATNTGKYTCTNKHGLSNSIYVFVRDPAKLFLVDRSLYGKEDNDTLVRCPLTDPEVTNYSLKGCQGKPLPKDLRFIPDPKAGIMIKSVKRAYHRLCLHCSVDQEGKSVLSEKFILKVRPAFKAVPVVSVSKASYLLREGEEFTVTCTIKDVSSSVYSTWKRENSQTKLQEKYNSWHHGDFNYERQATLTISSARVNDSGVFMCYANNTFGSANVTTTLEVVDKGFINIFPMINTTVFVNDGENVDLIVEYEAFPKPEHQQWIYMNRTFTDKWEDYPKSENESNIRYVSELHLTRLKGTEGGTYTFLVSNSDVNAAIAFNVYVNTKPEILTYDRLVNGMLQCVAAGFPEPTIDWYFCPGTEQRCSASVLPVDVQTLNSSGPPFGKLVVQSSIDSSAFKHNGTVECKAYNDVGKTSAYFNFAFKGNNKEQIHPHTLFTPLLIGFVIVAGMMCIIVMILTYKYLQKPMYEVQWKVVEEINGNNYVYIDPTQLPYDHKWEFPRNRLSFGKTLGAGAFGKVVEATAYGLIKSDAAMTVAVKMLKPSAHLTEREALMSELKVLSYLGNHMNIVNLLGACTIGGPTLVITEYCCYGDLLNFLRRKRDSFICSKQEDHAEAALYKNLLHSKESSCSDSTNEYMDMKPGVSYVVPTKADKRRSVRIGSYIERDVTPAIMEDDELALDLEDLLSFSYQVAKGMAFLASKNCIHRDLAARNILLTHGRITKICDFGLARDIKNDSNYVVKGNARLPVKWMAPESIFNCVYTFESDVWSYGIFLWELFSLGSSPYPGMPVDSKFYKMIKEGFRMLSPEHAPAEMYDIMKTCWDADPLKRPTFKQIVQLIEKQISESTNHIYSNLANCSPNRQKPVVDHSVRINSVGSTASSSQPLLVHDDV
Chain of FLT3 kinase (P36888 27-993): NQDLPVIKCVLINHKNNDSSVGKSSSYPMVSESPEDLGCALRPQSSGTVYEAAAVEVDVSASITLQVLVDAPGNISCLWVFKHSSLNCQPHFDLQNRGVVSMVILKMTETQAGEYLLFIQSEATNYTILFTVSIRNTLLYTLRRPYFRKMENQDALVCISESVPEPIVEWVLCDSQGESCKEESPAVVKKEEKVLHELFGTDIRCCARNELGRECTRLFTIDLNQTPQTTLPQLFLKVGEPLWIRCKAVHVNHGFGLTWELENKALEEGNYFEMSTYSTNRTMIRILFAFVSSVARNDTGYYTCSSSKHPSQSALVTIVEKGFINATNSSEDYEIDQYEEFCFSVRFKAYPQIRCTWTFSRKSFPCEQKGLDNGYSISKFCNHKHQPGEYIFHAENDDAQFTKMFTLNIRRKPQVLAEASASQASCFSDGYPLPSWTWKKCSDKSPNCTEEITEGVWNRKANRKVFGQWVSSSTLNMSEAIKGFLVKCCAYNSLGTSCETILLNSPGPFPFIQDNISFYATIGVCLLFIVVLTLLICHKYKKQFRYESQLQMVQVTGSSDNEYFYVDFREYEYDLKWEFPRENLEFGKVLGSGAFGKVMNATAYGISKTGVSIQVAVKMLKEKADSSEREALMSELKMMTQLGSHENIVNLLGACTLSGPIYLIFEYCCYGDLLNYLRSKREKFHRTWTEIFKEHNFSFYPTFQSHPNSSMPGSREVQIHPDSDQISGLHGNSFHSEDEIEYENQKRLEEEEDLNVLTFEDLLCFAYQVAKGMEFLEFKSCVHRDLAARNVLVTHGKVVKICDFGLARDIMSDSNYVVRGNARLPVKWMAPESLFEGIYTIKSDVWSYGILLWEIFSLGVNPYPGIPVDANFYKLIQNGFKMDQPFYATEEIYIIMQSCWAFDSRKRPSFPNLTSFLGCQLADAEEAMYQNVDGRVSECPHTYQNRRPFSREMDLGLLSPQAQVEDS

| SMILES | Kd (FLT3 kinase) | Kd (KIT kinase) |
| --- | --- | --- |
| COc1cc2nc(-c3ccc(CC(=O)Nc4cc(C5(C(F)(F)F)CC5)on4)c(F)c3)cnc2cc1OCCN1CC2CC(C1)O2 [Example 223, 2-[2-fluoro-4-[7-methoxy-6-[2-(6-oxa-3-azabicyclo[3.1.1]heptan-3-yl)ethoxy]quinoxalin-2-yl]phenyl]-N-[5-[1-(trifluoromethyl)cyclo-propyl]isoxazol-3-yl]acetamide] | < 5 nM | < 5 nM |
| COc1cc2nc(-c3ccc(CC(=O)Nc4cc(C5(C(F)(F)F)CC5)on4)c(F)c3)cnc2cc1OCCN1CC2CC1CO2 (centres unmarked) [Example 224, 2-[2-fluoro-4-[7-methoxy-6-[2-(2-oxa-5-azabicyclo[2.2.1]heptan-5-yl)ethoxy]quinoxalin-2-yl]phenyl]-N-[5-[1-(trifluoromethyl)cyclo-propyl]isoxazol-3-yl]acetamide] | < 5 nM | < 5 nM |
| COc1cc2nc(-c3ccc(CC(=O)Nc4cc(C5(C(F)(F)F)CC5)n[nH]4)c(F)c3)cnc2cc1OCCN1CCOCC1 [Example 230, 2-[2-fluoro-4-[7-methoxy-6-(2-morpholino-ethoxy)quinoxalin-2-yl]phenyl]-N-[3-[1-(trifluoro-methyl)cyclopropyl]-1H-pyrazol-5-yl]acetamide] | < 5 nM | < 5 nM |
| COc1cc2nc(-c3ccc(CC(=O)Nc4cc(C5(C(F)(F)F)CC5)on4)cc3)cnc2cc1OCCN1CCOCC1 [Example 231, 2-[4-[7-methoxy-6-(2-morpholinoethoxy)quinoxalin-2-yl]phenyl]-N-[5-[1-(trifluoromethyl)cyclo-propyl]isoxazol-3-yl]acetamide] | < 5 nM | < 5 nM |
| COc1cc2nc(-c3ccc(CC(=O)Nc4cc(C5(C(F)(F)F)CC5)on4)c(F)c3)cnc2cc1C(C)(O)CO (centres unmarked) [Example 233, 2-[4-[6-(1,2-dihydroxy-1-methyl-ethyl)-7-methoxy-quinoxalin-2-yl]-2-fluoro-phenyl]-N-[5-[1-(trifluoro-methyl)cyclopropyl]isoxazol-3-yl]acetamide] | < 5 nM | < 5 nM |
| COc1cc2ncc(-c3ccc(CC(=O)Nc4cc(C5(C(F)(F)F)CC5)on4)c(F)c3)nc2cc1OCCN1CCOCC1 [Example 234, 2-[2-fluoro-4-[6-methoxy-7-(2-morpholino-ethoxy)quinoxalin-2-yl]phenyl]-N-[5-[1-(trifluoro-methyl)cyclopropyl]isoxazol-3-yl]acetamide] | < 5 nM | < 5 nM |
| COc1cc2nc(-c3ccc(CC(=O)Nc4cc(C(C)(C)C(F)(F)F)n[nH]4)c(F)c3)cnc2cc1OCCN1CCOCC1 [Example 235, 2-[2-fluoro-4-[7-methoxy-6-(2-morpholino-ethoxy)quinoxalin-2-yl]phenyl]-N-[3-(2,2,2-trifluoro-1,1-dimethyl-ethyl)-1H-pyrazol-5-yl]acetamide] | < 5 nM | < 5 nM |
| COc1cc2ncc(-c3ccc(CC(=O)Nc4cc(C5(C(F)(F)F)CC5)on4)c(F)c3)nc2cc1OCC(O)CO (centres unmarked) [Example 236, 2-[4-[7-(2,3-dihydroxypropoxy)-6-methoxy-quinoxalin-2-yl]-2-fluoro-phenyl]-N-[5-[1-(trifluoromethyl)cyclo-propyl]isoxazol-3-yl]acetamide] | < 5 nM | < 5 nM |
| COc1cc2nc(-c3ccc(CC(=O)Nc4cc(C5(C(F)(F)F)CC5)on4)c(F)c3)cnc2cc1OCC(O)CO (centres unmarked) [Example 238, 2-[4-[6-(2,3-dihydroxypropoxy)-7-methoxy-quinoxalin-2-yl]-2-fluoro-phenyl]-N-[5-[1-(trifluoromethyl)cyclo-propyl]isoxazol-3-yl]acetamide] | < 5 nM | < 5 nM |
| COc1cc2ncc(-c3ccc(CC(=O)Nc4cc(C5(C(F)(F)F)CC5)on4)c(F)c3)nc2cc1OCC(C)(C)O [Example 239, 2-[2-fluoro-4-[7-(2-hydroxy-2-methyl-propoxy)-6-methoxy-quinoxalin-2-yl]phenyl]-N-[5-[1-(trifluoro-methyl)cyclopropyl]isoxazol-3-yl]acetamide] | < 5 nM | < 5 nM |
| COc1cc2nc(-c3ccc(CC(=O)Nc4cc(C5(C(F)(F)F)CC5)on4)c(F)c3)cnc2cc1OCCN1CCCOCC1 [Example 240, 2-[2-fluoro-4-[7-methoxy-6-[2-(1,4-oxazepan-4-yl)ethoxy]quinoxalin-2-yl]phenyl]-N-[5-[1-(trifluoromethyl)cyclo-propyl]isoxazol-3-yl]acetamide] | < 5 nM | < 5 nM |
| COc1cc2nc(-c3ccc(CC(=O)Nc4cc(C5(C(F)(F)F)CC5)on4)c(F)c3)cnc2cc1OCCN1CCNCC1 [Example 241, 2-[2-fluoro-4-[7-methoxy-6-(2-piperazin-1-ylethoxy)quinoxalin-2-yl]phenyl]-N-[5-[1-(trifluoromethyl)cyclo-propyl]isoxazol-3-yl]acetamide] | < 5 nM | < 5 nM |
| COc1cc2nc(-c3ccc(CC(=O)Nc4cc(C5(C(F)(F)F)CC5)on4)c(F)c3)cnc2cc1OCCN1CCOC[C@@H]1C [Example 243, 2-[2-fluoro-4-[7-methoxy-6-[2-[(3S)-3-methylmorpholin-4-yl]ethoxy]quinoxalin-2-yl]phenyl]-N-[5-[1-(trifluoromethyl)cyclo-propyl]isoxazol-3-yl]acetamide] | < 5 nM | < 5 nM |
| COc1cc2nc(-c3ccc(CC(=O)Nc4cc(C5(C(F)(F)F)CC5)on4)c(F)c3)cnc2cc1OCCN1CC2CCC(C1)O2 [Example 244, 2-[2-fluoro-4-[7-methoxy-6-[2-(8-oxa-3-azabicyclo[3.2.1]octan-3-yl)ethoxy]quinoxalin-2-yl]phenyl]-N-[5-[1-(trifluoromethyl)cyclo-propyl]isoxazol-3-yl]acetamide] | < 5 nM | < 5 nM |
| COc1cc2nc(-c3ccc(CC(=O)Nc4cc(C5(C(F)(F)F)CC5)on4)c(F)c3)cnc2cc1OCCN1C2CCC1COC2 [Example 245, 2-[2-fluoro-4-[7-methoxy-6-[2-(3-oxa-8-azabicyclo[3.2.1]octan-8-yl)ethoxy]quinoxalin-2-yl]phenyl]-N-[5-[1-(trifluoromethyl)cyclo-propyl]isoxazol-3-yl]acetamide] | < 5 nM | < 5 nM |
| COc1cc2nc(-c3ccc(CC(=O)Nc4cc(C5(C(F)(F)F)CC5)on4)c(F)c3)cnc2cc1OCCN1CCOC[C@H]1C [Example 247, 2-[2-fluoro-4-[7-methoxy-6-[2-[(3R)-3-methylmorpholin-4-yl]ethoxy]quinoxalin-2-yl]phenyl]-N-[5-[1-(trifluoromethyl)cyclo-propyl]isoxazol-3-yl]acetamide] | < 5 nM | < 5 nM |

Next, values leading:

| Kd (FLT3 kinase) | Kd (KIT kinase) | SMILES |
| --- | --- | --- |
| < 5 nM | < 5 nM | COc1cc2ncc(-c3cc(F)c(CC(=O)Nc4cc(C(C)(C)C(F)(F)F)on4)c(F)c3)nc2cc1OC [Example 225, 2-[4-(6,7-dimethoxyquinoxalin-2-yl)-2,6-difluoro-phenyl]-N-[5-(2,2,2-trifluoro-1,1-dimethyl-ethyl)isoxazol-3-yl]acetamide] |
| < 5 nM | < 5 nM | COc1cc2ncc(-c3cc(F)c(CC(=O)Nc4cc(C5(C(F)(F)F)CC5)on4)c(F)c3)nc2cc1OC [Example 226, 2-[4-(6,7-dimethoxyquinoxalin-2-yl)-2,6-difluoro-phenyl]-N-[5-[1-(trifluoromethyl)cyclo-propyl]isoxazol-3-yl]acetamide] |
| < 5 nM | < 5 nM | COc1cc2ncc(-c3ccc(CC(=O)Nc4cc(C5(C(F)(F)F)CC5)on4)c(F)c3)nc2cc1OCCCN [Example 227, 2-[4-[7-(3-aminopropoxy)-6-methoxy-quinoxalin-2-yl]-2-fluoro-phenyl]-N-[5-[1-(trifluoromethyl)cyclo-propyl]isoxazol-3-yl]acetamide] |
| < 5 nM | < 5 nM | COc1cc2nc(-c3ccc(CC(=O)Nc4cc(C5(C(F)(F)F)CC5)nn4C)c(F)c3)cnc2cc1OCCN1CCOCC1 [Example 228, 2-[2-fluoro-4-[7-methoxy-6-(2-morpholino-ethoxy)quinoxalin-2-yl]phenyl]-N-[2-methyl-5-[1-(trifluoromethyl)cyclo-propyl]pyrazol-3-yl]acetamide] |
| < 5 nM | < 5 nM | COc1cc2ncc(-c3cnc(CC(=O)Nc4cc(C(C)(C)C(F)(F)F)on4)c(F)c3)nc2cc1OC [Example 229, 2-[5-(6,7-dimethoxyquinoxalin-2-yl)-3-fluoro-2-pyridyl]-N-[5-(2,2,2-trifluoro-1,1-dimethyl-ethyl)isoxazol-3-yl]acetamide] |
| < 5 nM | < 5 nM | COc1cc2cc(-c3ccc(CC(=O)Nc4cc(C5(C(F)(F)F)CC5)on4)c(F)c3)cnc2cc1OCCN1CCOCC1 [Example 232, 2-[2-fluoro-4-[6-methoxy-7-(2-morpholinoethoxy)-3-quinolyl]phenyl]-N-[5-[1-(trifluoromethyl)cyclo-propyl]isoxazol-3-yl]acetamide] |
| < 5 nM | < 5 nM | COc1cc2nc(-c3ccc(CC(=O)Nc4cc(C5(C(F)(F)F)CC5)on4)c(F)c3)cnc2cc1OCCCNC(C)=O [Example 237, 2-[4-[6-(3-acetamidopropoxy)-7-methoxy-quinoxalin-2-yl]-2-fluoro-phenyl]-N-[5-[1-(trifluoromethyl)cyclo-propyl]isoxazol-3-yl]acetamide] |
| < 5 nM | < 5 nM | COc1cc2nc(-c3ccc(CC(=O)Nc4cc(C5(C(F)(F)F)CC5)on4)c(F)c3)cnc2cc1OCCN1CCO[C@H](C)C1 [Example 242, 2-[2-fluoro-4-[7-methoxy-6-[2-[(2R)-2-methylmorpholin-4-yl]ethoxy]quinoxalin-2-yl]phenyl]-N-[5-[1-(trifluoromethyl)cyclo-propyl]isoxazol-3-yl]acetamide] |
| < 5 nM | < 5 nM | COc1cc2nc(-c3ccc(CC(=O)Nc4cc(C(C)(C)C(F)(F)F)on4)c(F)c3)cnc2cc1OCC(C)(C)O [Example 246, 2-[2-fluoro-4-[6-(2-hydroxy-2-methyl-propoxy)-7-methoxy-quinoxalin-2-yl]phenyl]-N-[5-(2,2,2-trifluoro-1,1-dimethyl-ethyl)isoxazol-3-yl]acetamide] |
